Converted amounts (≈) assume the structure as drawn.
Tests used:
[1] = Solubility (Test F); assay type: physicochemical; details: arithmetic mean if run multiple times
Description: The assay was conducted according to the Solubility Assay described in pages 164-167 of Wernevik, J. et al., “A Fully Integrated Assay Panel for Early Drug Metabolism and Pharmacokinetics Profiling”, Assay and Drug Development Technologies, 2020, 18(4), 157-179. Data are reported in Table 36 as solubility ([…]. Where the assay was run multiple times for the same compound, the arithmetic mean is reported.

[2] = Human Liver Microsomal Stability (Test C); assay type: in vitro ADME; details: human, liver microsomes
In short: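 Human liver microsome incubation per the Wernevik et al. integrated DMPK panel protocol. Intrinsic clearance reported as CLint in μl/min/mg protein, averaged arithmetically over repeat runs.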

[3] = Human Plasma Protein Binding (Test B); assay type: in vitro ADME; details: fraction unbound (fu)
In short: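 Human plasma protein binding run per the published Wernevik et al. (2020) integrated DMPK panel protocol. Values are fraction unbound (fu, % free); repeat runs averaged arithmetically.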

[4] = Rat Hepatocyte Stability (Test E); assay type: in vitro ADME; details: rat, hepatocytes, geometric mean if run multiple times
In short: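 Run per the published AstraZeneca-type rat hepatocyte stability protocol (Wernevik et al. panel). Values are mean intrinsic clearance, Clint in μl/min/10^6 cells; geometric mean used for repeated runs.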

[5] = target: T1, human RXFP1 (Homo sapiens, UniProt Q9HBX9); assay: RXFP1 Hu cAMP (Test A); assay type: cell-based; parameters: expressed in transfected cells; host or cells: Jump-In T-REx CHO-K1 cells (ThermoFisher), induced with 10 ng/ml doxycycline for 24 h; details: RXFP1 Hu cAMP; for EC50: read-out: Test A EC50
T1 sequence (Q9HBX9 1-757): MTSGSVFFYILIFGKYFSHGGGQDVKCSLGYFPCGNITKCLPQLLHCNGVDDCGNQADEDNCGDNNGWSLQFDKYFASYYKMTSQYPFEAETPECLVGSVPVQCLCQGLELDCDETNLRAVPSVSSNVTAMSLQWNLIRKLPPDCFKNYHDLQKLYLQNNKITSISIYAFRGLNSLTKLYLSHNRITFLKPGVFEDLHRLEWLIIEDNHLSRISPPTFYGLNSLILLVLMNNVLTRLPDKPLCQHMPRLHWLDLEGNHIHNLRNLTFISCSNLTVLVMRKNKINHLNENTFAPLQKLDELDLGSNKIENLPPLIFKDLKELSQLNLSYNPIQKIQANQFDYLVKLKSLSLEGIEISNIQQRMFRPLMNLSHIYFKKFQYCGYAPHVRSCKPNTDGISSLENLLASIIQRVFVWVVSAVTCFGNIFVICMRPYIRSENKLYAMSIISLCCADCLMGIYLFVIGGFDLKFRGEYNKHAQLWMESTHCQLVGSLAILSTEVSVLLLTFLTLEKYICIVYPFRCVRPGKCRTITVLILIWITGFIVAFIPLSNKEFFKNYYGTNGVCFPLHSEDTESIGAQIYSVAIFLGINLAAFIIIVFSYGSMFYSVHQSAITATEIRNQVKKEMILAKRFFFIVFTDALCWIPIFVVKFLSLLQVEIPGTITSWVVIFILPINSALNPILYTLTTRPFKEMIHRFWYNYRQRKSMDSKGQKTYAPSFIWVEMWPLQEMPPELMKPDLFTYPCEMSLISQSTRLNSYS
In short: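 Read-out is HTRF signal, inversely proportional to cAMP, converted to cAMP amount by standard curve. Stimulation occurred in inducible CHO-K1 cells expressing the human receptor with phosphodiesterases blocked by 0.5 mM IBMX.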

Row | solubility [1] | microsomal CLint [2] | Test B Human Plasma Protein Binding (% free) [3] | hepatocyte CLint [4] | Test A Sinf [5] | EC50 [5] | Compound
1 | 80 µM (≈ 50.2 µg/mL) | 27 µL/min/mg | 0.24 % free | 20 µL/min/1e6 cells | 110% | 18 nM | COc1cc(F)c(O[C@H]2CC[C@@H](C(=O)O)CC2)cc1C(=O)N[C@@H]1[C@H]2CC[C@H](C2)[C@@H]1C(=O)Nc1ccc(Cl)c(C(F)(F)F)c1 [Example 186]
2 | 860 µM (≈ 508 µg/mL) | 28 µL/min/mg | 1.6 % free | 130 µL/min/1e6 cells | 131% | 830 nM | COc1cc(F)c(O[C@H]2CC[C@@H](C(=O)O)CC2)cc1C(=O)N[C@@H]1[C@H]2CC[C@H](C2)[C@@H]1C(=O)Nc1cccc(OC(F)F)c1 [Example 195]
3 | > 1000 µM | 5.8 µL/min/mg | 14 % free | 110 µL/min/1e6 cells | 100% | > 5900 nM | COc1cc(F)c(O[C@H]2CC[C@@H](C(=O)O)CC2)cc1C(=O)NC1C(C(=O)NCCCC(F)(F)F)[C@@H]2CC[C@H]1C2 (stereo partly drawn) [Example 175, (1S,4s)-4-(2-Fluoro-4-methoxy-5-(((1S,2R,3S,4R)-3-((4,4,4-trifluorobutyl)carbamoyl)bicyclo[2.2.1]heptan-2-yl)carbamoyl)phenoxy)cyclohexane-1-carboxylic acid]
4 | 51 µM (≈ 33.7 µg/mL) | 23 µL/min/mg | 0.23 % free | 14 µL/min/1e6 cells | 130% | – | COc1cc(F)c(O[C@H]2CC[C@@H](C(=O)O)CC2)cc1C(=O)N[C@@H]1[C@H]2CC[C@H](C2)[C@@H]1C(=O)Nc1cc(C(F)(F)F)cc(C(F)(F)F)c1 [Example 22, (1S,4s)-4-(5-(((1S,2R,3S,4R)-3-((3,5-Bis(trifluoromethyl)phenyl)carbamoyl)bicyclo[2.2.1]heptan-2-yl)carbamoyl)-2-fluoro-4-methoxyphenoxy)cyclohexane-1-carboxylic acid]
5 | 820 µM (≈ 435 µg/mL) | 8.9 µL/min/mg | 8 % free | 21 µL/min/1e6 cells | 114% | > 5500 nM | COc1cc(F)c(O[C@H]2CC[C@@](C)(C(=O)O)CC2)cc1C(=O)N[C@@H]1[C@H]2CC[C@H](C2)[C@@H]1C(=O)NCC1(C)CC1 [Example 41]
6 | 290 µM (≈ 176 µg/mL) | 36 µL/min/mg | 0.64 % free | 38 µL/min/1e6 cells | 103% | 270 nM | COc1cc(F)c(O[C@H]2CC[C@@H](C(=O)O)CC2)cc1C(=O)N[C@@H]1[C@H]2CC[C@H](C2)[C@@H]1C(=O)Nc1cc(C)cc(C(F)(F)F)c1 [Example 188]
7 | > 1000 µM | 10 µL/min/mg | 13 % free | 26 µL/min/1e6 cells | 100% | > 40000 nM | COc1cc(F)c(O[C@H]2CC[C@@H](C(=O)O)CC2)cc1C(=O)N[C@@H]1[C@H]2CC[C@H](C2)[C@@H]1C(=O)Nc1nccc(C(F)(F)F)n1 [Example 32]

The remaining lines, values behind:

Row | Compound | solubility [1] | microsomal CLint [2] | Test B Human Plasma Protein Binding (% free) [3] | hepatocyte CLint [4] | Test A Sinf [5] | EC50 [5]
8 | COc1cc(F)c(-c2ccc(CCC(=O)O)cc2)cc1C(=O)N[C@@H]1CCC[C@@H]1C(=O)Nc1cccc(S(=O)(=O)C(F)(F)F)c1 [Example 321] | 950 µM (≈ 605 µg/mL) | 33 µL/min/mg | 0.45 % free | 59 µL/min/1e6 cells | 101% | 340 nM
9 | COc1cc(C#N)c(O[C@H]2CC[C@@](C)(C(=O)O)CC2)cc1C(=O)N[C@@H]1[C@H]2CC[C@H](C2)[C@@H]1C(=O)NCC1(O)CCCCCC1 [Example 103] | 860 µM (≈ 512 µg/mL) | 11 µL/min/mg | 10 % free | 38 µL/min/1e6 cells | – | > 5000 nM
10 | COc1cc(F)c(O[C@H]2CC[C@@](C)(C(=O)O)CC2)cc1C(=O)N[C@@H]1CCC[C@@H]1C(=O)NCC1(CF)CC1 [Example 56, (1S,4s)-4-(2-Fluoro-5-(((1R,2S)-2-(((1-(fluoromethyl)cyclopropyl)methyl)carbamoyl)cyclopentyl)carbamoyl)-4-methoxyphenoxy)-1-methylcyclohexane-1-carboxylic acid] | 980 µM (≈ 512 µg/mL) | < 3 µL/min/mg | 21 % free | 17 µL/min/1e6 cells | 105% | 12000 nM
11 | COc1cc(F)c(-c2ccc(C(N)=O)cc2)cc1C(=O)N[C@@H]1[C@H]2CC[C@H](C2)[C@@H]1C(=O)Nc1cccc(S(=O)(=O)C(F)(F)F)c1 [Example 434, 6-Fluoro-4-methoxy-N3-((1S,2R,3S,4R)-3-((3-((trifluoromethyl)sulfonyl)phenyl)carbamoyl)bicyclo[2.2.1]heptan-2-yl)-[1,1′-biphenyl]-3,4′-dicarboxamide] | 130 µM (≈ 82.4 µg/mL) | 110 µL/min/mg | <0.36 % free | 13 µL/min/1e6 cells | 82% | 590 nM
12 | COc1cc(F)c(-c2ccc(C(=O)O)c(F)c2)cc1C(=O)N[C@@H]1[C@H]2CC[C@H](C2)[C@@H]1C(=O)Nc1cccc(S(=O)(=O)C(F)(F)F)c1 [Example 236, 2′,3-Difluoro-4′-methoxy-5′-(((1S,2R,3S,4R)-3-((3-((trifluoromethyl)sulfonyl)phenyl)carbamoyl)bicyclo[2.2.1]heptan-2-yl)carbamoyl)-[1,1′-biphenyl]-4-carboxylic acid] | > 1000 µM | 13 µL/min/mg | 0.50 % free | 14 µL/min/1e6 cells | 103% | 210 nM
13 | COc1cc(C#N)c(O[C@H]2C[C@]3(C2)C[C@H](C(=O)O)C3)cc1C(=O)N[C@@H]1[C@H]2CC[C@H](C2)[C@@H]1C(=O)NCC1(C)CCC1 (single isomer, unassigned) [Example 7, (2R*,4r,6R)-6-(2-Cyano-4-methoxy-5-(((1S,2R,3S,4R)-3-(((1-methylcyclobutyl)methyl)carbamoyl)bicyclo[2.2.1]heptan-2-yl)carbamoyl)phenoxy)spiro[3.3]heptane-2-carboxylic acid] | 820 µM (≈ 451 µg/mL) | 23 µL/min/mg | 4.4 % free | 23 µL/min/1e6 cells | 86% | 1300 nM
14 | COc1cc(C#N)c(O[C@H]2CC[C@@](C)(C(=O)O)CC2)cc1C(=O)N[C@@H]1[C@H]2CC[C@H](C2)[C@@H]1C(=O)NCC1(C)CCCCCC1 [Example 105] | 220 µM (≈ 131 µg/mL) | > 300 µL/min/mg | 2.5 % free | 48 µL/min/1e6 cells | 125% | 4.8 nM
15 | CCC(CC)CNC(=O)[C@H]1[C@@H]2CC[C@@H](C2)[C@H]1NC(=O)c1cc(O[C@H]2CC[C@@](C)(C(=O)O)CC2)c(C#N)cc1OC [Example 88] | 610 µM (≈ 338 µg/mL) | 40 µL/min/mg | 4.4 % free | 26 µL/min/1e6 cells | 124% | 33 nM
